This note sets out measurements from patent US6204283A, “Parasitic mite control on beneficial insects” (American Cyanamid Company, priority 1999, dated 2001).

Holding throughout (assay type): in vivo
In assay [1] the test system is Varroa jacobsoni. The assay can be described thus: Field evaluation against Varroa jacobsoni parasites in infested beehives (stickyboard count). The following applies: two strips containing 18% tebufenpyrad in 60:40 beeswax:lard, 24 hours after treatment. The source says:
Field Evaluation Of The Efficiacy Of Test Compound Against Varroa jacobsoni Parasites
In this evaluation, two Varroa jacobsoni infested beehives are monitored for the extent of infestation using stickyboards inserted at the bottom of the hive. Data are presented as the number of mites trapped on the stickyboard per day. Two strips (2.5×17 cm) containing 18% tebufenpyrad dissolved in a 60:40 beeswax:lard (Crisco®) mixture are inserted into each hive brood chamber as per standard practice. One day after treatment, the stickyboards are removed and the dead mites counted.

The subject of assay [2] is Varroa jacobsoni (Varroa mites). The assay can be described thus: Efficacy against Varroa jacobsoni parasites on infested honeybees, topical application (mite mortality). The following applies: 120 h, topical 1 μl acetone solution, 5 days, 31° C. As for the experimental part: (§1) Evaluation Of The Efficacy Of Test Compound Against Varroa jacobsoni Parasites
(§2) In this evaluation, honeybees (Apis mellifera) taken from hives which are 70-90% infested with Varroa jacobsoni (Varroa mites) are chilled to immobilize the bees. A 1 μl droplet of an acetone solution of tebufenpyrad is applied to the dorsal abdomen of each bee. Control bees receive 1 μl droplet of acetone. A total of 50-52 bees are treated for each dose rate tested. Treatment dose rates are based upon the LD50 (dose rate required to obtain 50% mortality of healthy uninfected bees) of tebufenypyrad and are set at 10% of the LD50 and subsequent 10-fold dilution thereof. The treated bees are placed in an incubator at 31° C. in the dark and fed 50% sugar water ad libitum for 5 days. After incubation, the bees are examined for mortality and mite infestation. The results are shown in Table I below, as % mortality of the total of the bees and the total of the mites.

The test system of assay [3] is Acarapis woodi (trachea mites). The assay can be described thus: Efficacy against Acarapis woodi parasites on treated glass slides. The following applies: slides dipped in 500 ppm acetone solution. The source says: Evaluation Of The Efficacy Of Test Compound Against Acarapis woodi Parasites
In this evaluation, honeybees (Apis mellifera) which are infested with Acarapis woodi (trachea mites) are dissected to remove the infested tracheae. Glass microscope slides are dipped into acetone solutions of tebufenpyrad (500 ppm)and the acetone is allowed to evaporate. Infested tracheae are placed directly on the treated slides. The mites are removed from the tracheae by dissection and forced to walk across the treated area. The elapsed time is recorded for 100% mortality, i.e. no movement is observed upon agitation.

Assay [4] has as its system honeybees (Apis mellifera). The assay can be described thus: Mortality of the Varroa-infested honeybees, topical application. The following applies: 120 h, topical 1 μl acetone solution, 5 days, 31° C., read-out: % Mortality, Bees. As for the experimental part:
as §1, §2

The mortality is the percentage killed. Take `CCc1nn(C)c(C(=O)NCc2ccc(C(C)(C)C)cc2)c1Cl` [Tebufenpyrad, N-(4-t-butylbenzyl)-4-chloro-3-ethyl-1-methylpyrazole-5-carboxamide]: the “Treatment mites/day (dead mites trapped on stickyboard)” value is on record as 1777 mites/day in assay [1] (Hive 1, pretreatment 101 mites/day) and 1080 mites/day in assay [1] (Hive 2, pretreatment 66 mites/day). Besides, the mortality at 0.006 µg/bee stood at 58% in assay [2] (0.006 μg/bee) and 24% in assay [4] (0.006 μg/bee). The mortality at 0.06 µg/bee in assay [2] (0.06 μg/bee) is 44%; in assay [4] (0.06 μg/bee) it was 25%. The mortality at 0.6 µg/bee in assay [2] (0.6 μg/bee) turned out to be 92%; in assay [4] (0.6 μg/bee), 28%. The “Time required to achieve 100% mortality” value is 8.5 min in assay [3] (Rep. 1, 7 mites); 8 min in assay [3] (Rep. 2, 10 mites); 8 min in assay [3] (Rep. 3, 7 mites).
